From patent publication US20200392107A1, “CYCLIC AMINE DERIVATIVE AND MEDICAL USE THEREOF” (Toray Industries, Inc., priority 2018, published 2020)

Tests used:
[1] = target: T1, RORγ-LBD (GST-fused ligand-binding domain of RORγ) / coactivator TRAP220/DRIP-2 (Homo sapiens, UniProt P51449); experiment: Inhibitory effect on RORγ-coactivator binding (LanthaScreen TR-FRET RORγ Coactivator Assay); assay type: biochemical; details: at 33 μmol/L of the test compound; read-out: RORγ-coactivator binding inhibition rate (%)
T1 construct: purchased Invitrogen
T1 sequence (P51449 269-508 limits assumed): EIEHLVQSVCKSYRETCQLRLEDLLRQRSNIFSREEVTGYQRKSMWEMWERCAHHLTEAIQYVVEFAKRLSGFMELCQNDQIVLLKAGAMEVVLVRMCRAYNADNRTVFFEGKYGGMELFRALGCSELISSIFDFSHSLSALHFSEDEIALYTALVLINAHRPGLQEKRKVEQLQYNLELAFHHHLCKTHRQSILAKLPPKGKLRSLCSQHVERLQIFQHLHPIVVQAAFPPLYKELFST
Method: The inhibitory effect of the cyclic amine derivative (I) or a pharmacologically acceptable salt thereof on the binding between a ligand-binding domain of RORγ (hereinafter referred to as RORγ-LBD) and a coactivator was evaluated using Invitrogen's LanthaScreen™ TR-FRET Retinoid-Related Orphan Receptor (ROR) gamma Coactivator Assay kit utilizing time-resolved fluorescence energy transfer (TR-FRET).
A test compound was dissolved in DMSO and diluted with TR-FRET Coregulator Buffer D (Invitrogen) containing 5 mmol/L of DTT to have a final DMSO concentration of 1% before use. To each well of a 384-well black plate (Corning Inc.), 4 nmol/L of GST-fused RORγ-LBD (Invitrogen) diluted with the buffer mentioned above and the test compound were added. A well without addition of the test compound and without addition of GST-fused RORγ-LBD (background) and a well without addition of the test compound and with addition of GST-fused RORγ-LBD (control) were prepared. Next, 150 nmol/L of fluorescein-labeled TRAP220/DRIP-2 (Invitrogen) diluted with the buffer mentioned above and 32 nmol/L of terbium-labeled anti-GST antibody (Invitrogen) were added to each well. After incubating the plate at room temperature for 16 to 24 hours, the fluorescence at 495 nm and 520 nm when excited at 320 nm was measured for each well and the ratio (fluorescence value at 520 nm/fluorescence value at 495 nm) was calculated.
The fold change with addition of the test compound (ratio with addition of the test compound/ratio of the background), the fold change of the control (ratio of the control/ratio of the background), and the fold change of the background (ratio of the background/ratio of the background) were calculated, and then the inhibition rate of binding between RORγ-LBD and a coactivator (hereinafter referred to as RORγ-coactivator binding inhibition rate) (%) was calculated from Formula (1):
RORγ-coactivator binding inhibition rate (%)=(1−((Fold change with addition of the test compound)−(Fold change of the background))/((Fold change of the control)−(Fold change of the background)))×100 (1).

[2] = system: IL-17 production in mouse splenocytes; experiment: Suppressive effect on IL-17 production by IL-23 stimulation in mouse splenocytes; assay type: cell-based; details: Splenocyte, 72 h, at 5 μmol/L of the test compound, human IL-23 10 ng/mL, cultured 3 days, read-out: IL-17 production inhibition rate (%)
Method: Using mouse splenocytes, the suppressive effect of the cyclic amine derivative (I) or a pharmacologically acceptable salt thereof on IL-17 production by IL-23 stimulation was evaluated by a partially modified method mentioned in The Journal of Biological Chemistry, 2003, Vol. 278, No. 3, p. 1910-1914.
A single cell suspension was prepared from the spleen of C57BL/6J mice (male or female, 6 to 30 weeks old) (Charles River Laboratories Japan, Inc. or CLEA Japan, Inc.) and splenocytes were prepared using Histopaque-1083 (Sigma-Aldrich Japan). The culture medium was used by adding 10% FBS (Gibco), 50 U/mL of penicillin-50 μg/mL of streptomycin (Gibco), 50 μmol/L of 2-mercaptoethanol (Gibco), and 100 U/mL of human IL-2 (Cell Science & Technology Institute, Inc.) to RPMI1640 medium (Gibco). A test compound was dissolved in DMSO and then diluted with the culture medium to have a final concentration of DMSO of 0.1% before use. Splenocytes (3×10^5 cells/well) prepared in the culture medium were seeded in wells of a 96-well flat-bottom plate (Corning Incorporated), the test compound and 10 ng/mL of human IL-23 (R & D systems, Inc.) were added thereto, and the cells were cultured at 37° C. under 5% CO2 for 3 days. A well without addition of human IL-23 and without addition of the test compound and a well with addition of human IL-23 and without addition of the test compound were prepared. After completion of the culture, the culture supernatant was collected and the IL-17 production amount in the supernatant was determined by ELISA method (R & D systems, Inc.).
The IL-17 production inhibition rate (%) was calculated from Formula (2).
IL-17 production inhibition rate (%)=(1−((IL-17 production amount with addition of IL-23 and with addition of the test compound)−(IL-17 production amount without addition of IL-23 and without addition of the test compound))/((IL-17 production amount with addition of IL-23 and without addition of the test compound)−(IL-17 production amount without addition of IL-23 and without addition of the test compound)))×100 (2).

Compound | inhibition at 33 µM [1] | inhibition at 5 µM [2]
CC(=O)N1CCCC[C@@H]1C(=O)Nc1ccc2c(c1)CCCN2Cc1ccc(C(F)(F)F)cc1 [Example 2, (R)-1-acetyl-N-(1-(4-(trifluoromethyl)benzyl)-1,2,3,4-tetrahy-droquinolin-6-yl)piperidine-2-carboxamide] | 94.3% | 98.4%
CC(=O)N1CCCC[C@@H]1C(=O)Nc1cc(Cl)c2c(c1)CCN(Cc1ccc(C(F)(F)F)cc1)C2 [Example 3, (R)-1-acetyl-N-(8-chloro-2-(4-(trifluoromethyl)benzyl)-1,2,3,4-tetrahydroisoquinolin-6-yl)piperidine-2-carboxamide] | 99.5% | 99.7%
CC(=O)N1CCCC[C@@H]1C(=O)Nc1cc(Cl)c2c(c1)CCN2Cc1cccc(C(F)(F)F)c1 [Example 5, (R)-1-acetyl-N-(7-chloro-1-(3-(trifluoromethyl)benzyl)indolin-5-yl)piperidine-2-carboxamide] | 87.9% | 87.5%
CC(=O)N1CCCC[C@@H]1C(=O)Nc1cc(Cl)c2c(c1)CCN2Cc1ccccc1C(F)(F)F [Example 6, (R)-1-acetyl-N-(7-chloro-1-(2-(trifluoromethyl)benzyl)indolin-5-yl)piperidine-2-carboxamide] | 85.2% | 91.6%
CC(=O)N1CCCC[C@@H]1C(=O)Nc1cc(Cl)c2c(c1)CCN2CCc1ccc(C(F)(F)F)cc1 [Example 7, (R)-1-acetyl-N-(7-chloro-1-(4-(trifluoromethyl)phenethyl)indolin-5-yl)piperidine-2-carboxamide] | 96% | 98.6%
CC(=O)N1CCCC[C@@H]1C(=O)Nc1cc(Cl)c2c(c1)CCN2Cc1ccc(OC(F)(F)F)cc1 [Example 8, (R)-1-acetyl-N-(7-chloro-1-(4-(trifluoromethoxy)benzyl)in-dolin-5-yl)piperidine-2-carboxamide] | 99.4% | 100%
CC(=O)N1CCCCC1C(=O)Nc1cc(Cl)c2c(c1)CCN2Cc1ccc(C(F)(F)F)cc1 (centres unmarked) [Example 10, 1-acetyl-N-(7-chloro-1-(4-(trifluoromethyl)benzyl)indolin-5-yl)piperidine-2-carboxamide] | 99.8% | 99.5%
